Data: patent US7968606B2 (Takasago International Corporation, priority 2004, dated 2011)

System: Japanese women
Test: Contingent negative variation (CNV) amplitude measurement, method of Torii
Type: in vivo, human
Settings: used in perfume compositions in an amount of less than 0.5% by weight, preferably 0.01% to 0.4% by weight
From the text: (CNV) according to the method of Torii [Proceedings of the 19th Japanese Symposium on Taste and Smell, 65 (1985)], which is also described in detail in U.S. Pat. No. 6,268,333.
The contingent negative variations are small variations in cerebral potential related to psychological processes, such as attention, waiting, anticipation etc. as well as being related to changes in the state of consciousness.
According to this method, a luminous signal is emitted approximately 2 seconds after the audible signal, and the subject must switch off the luminous signal by pressing on the button as soon as the luminous signal is recognised.
When carrying out these experiments, a sample to be tested (perfume composition) or a reference sample (with no smell) is placed around 10 centimeters from the nose of the subject taking part in these experiments in such a way as to ensure that the compound is recognised at all times via the said subject's respiration. […]
The contingent negative variations measured during an early period of time going from 400 msec to 1000 msec after the audible signal and the amplitude of these variations is expressed with respect to a reference sample to which a value of 100% is given. […]
The amplitude of the contingent negative variations was determined for each woman taking part in the test during the early period going from 400 msec to 1000 msec after the audible signal.

COc1cc(OC)cc(OC)c1 [1,3,5-trimethoxybenzene]
sedative effect by measurement of contingent negative variations: sedative effect
